Data reported in patent US20250333805A1, “HERICIUM ERINACEUS STRAIN HE015, MOLECULAR MARKERS AND USES THEREOF” (INFINITUS (CHINA) COMPANY LTD., priority 2024, published 2025).

Tested on: mice with chronic alcohol-induced gastric mucosal damage
Experiment: Chronic alcohol-induced gastric mucosal damage mice model (60% ethanol intragastrically): body weight, survival, HE staining of gastric tissue
Assay type: in vivo, Male KM mice
Conditions: for body weight of the mice at the end of the experiment, compared with Model: extracts 10 mg/mL, Lansoprazole 0.35 mg/mL, 0.3 mL intragastrically once daily for 2 weeks, 60% ethanol in second week, P<0.05 where significant
Procedure: Male KM mice, SPF grade, body weight of 18-22 g, 5-6 weeks of age, feeding temperature and humidity: 23±1° C. and 55±10%; 12 h day-and-night discontinuous illumination was used; conditions of the raising room were always kept stable, thereby ensuring the reliability of the test result. The mice took food and drank water freely.
Male KM mice were adaptively raised for 7 d, and then randomly divided into the following 8 groups: • Blank control group 1: Control • Model control group 1: Model • Administration group 1: Positive • Administration group 2: HEF • Administration group 3: HEFP • Administration group 4: HEFX • Administration group 5: HESP • Administration group 6: HESX.
There were 14 mice in the Model group, and 13 mice in the other groups, and the mice were fed with an ordinary fodder.
Experimental duration is 2 weeks:
First week: the mice in each administration group were prophylactically administered intragastrically once every day; and its administration concentration is shown in Table 9; meanwhile, the mice in the Control and Model groups were administered 0.3 mL of pure water intragastrically.
Second week: the mice in the Model and each administration groups were administered 0.3 mL of 60% ethanol intragastrically once per day for modeling, to induce a chronic alcohol-induced gastric mucosal damage mice model, and modeling was performed for a week; meanwhile, the mice in the administration groups were administered (administration concentration and dosage were the same as those in the first week), the protective effects of different administration groups on gastric mucosa were observed.
Administration was stopped the night before the end of the experiment; the mice were not allowed to take food, but allowed to drink water. Eyeballs were picked out and blood was collected, and then the mice were killed by cervical dislocation; gastric tissues were taken and placed into 4% paraformaldehyde stationary solution for immobilization, for use in pathological examination.

## Cc1c(OCC(F)(F)F)ccnc1C[S+]([O-])c1nc2ccccc2[nH]1 (stereo not drawn) [Positive, Lansoprazole]
FIG. 5A
  body weight of the mice at the end of the experiment, compared with Model: significantly greater than that in the Model
FIG. 5A, listed as Lansoprazole
  body weight of the mice at the end of the experiment, compared with Model: may increase the body weight
Same regimen, compared with other groups, FIG. 5B
  death count of the mice at the end of the experiment: obviously higher than that in other groups
Same regimen, gastric tissue at end of experiment, FIG. 6
  HE staining of mice gastric tissues (gastric mucosa morphology): necrosis exfoliation of partial mucosal epithelial cells of the gastric tissue, loose arrangement of partial cells and infiltration of a small amount of inflammatory cells
Same regimen, survival curve FIG. 5B
  survival rate of the mice at the end of the experiment, compared with Model: slightly higher than that of the Model group
Second week, 60% ethanol modeling, P<0.01, FIG. 5A
  body weight of the mice during modeling, compared with Control: lower than that in the Control
